Test results as given in ChEMBL document CHEMBL3044601, “Movento®, an innovative ambimobile insecticide for sucking insect pest control in agriculture: Biological profile and field performance” (Crop Prot, 2009).
Values after ≈ are worked out from the molar mass of the structure shown.

How the values were obtained:
[1] = test system: Bemisia tabaci; experiment: Resistance ratio, LC50 for second instar nymph of organophosphates-resistant Bemisia tabaci MEX03-02 (sweet potato whitefly) to LC50 for second instar nymph of Bemisia tabaci SUD-S; assay type: functional
[2] = test system: Myzus persicae; experiment: Insecticidal activity against Myzus persicae (green peach aphid) infected first leaf of cabbage plant assessed as phloem-systemic efficacy at 4 ug/plant treated with 2 g/L rapeseed oil methylester measured after 7 days on 3rd leaf by phloem mobility bioassay; assay type: functional
[3] = Lipophilicity, log P of the compound; assay type: physicochemical; details: octanol/water
[4] = test system: Myzus persicae; experiment: Insecticidal activity against Myzus persicae (green peach aphid) infected first leaf of cabbage plant assessed as phloem-systemic efficacy at 20 ug/plant treated with 2 g/L rapeseed oil methylester measured after 7 days on 3rd leaf by phloem mobility bioassay; assay type: functional
[5] = test system: Bemisia tabaci; experiment: Insecticidal activity against second instar nymph of organophosphates, pyrethroids, buprofezin, pyriproxyfen and pymetrozin-resistant Bemisia tabaci BR-JM03 (sweet potato whitefly) in cotton plant leaf after 10 days by leaf-dip bioassay; assay type: functional; details: BR-JM03, 240 h
[6] = test system: Myzus persicae; experiment: Insecticidal activity against Myzus persicae (green peach aphid) infected first leaf of cabbage plant assessed as phloem-systemic efficacy at 100 ug/plant treated with 2 g/L rapeseed oil methylester measured after 7 days on 3rd leaf by phloem mobility bioassay; assay type: functional
[7] = test system: Bemisia tabaci; experiment: Resistance ratio, LC50 for second instar nymph of organophosphates, pyrethroids, buprofezin, pyriproxyfen and pymetrozin-resistant Bemisia tabaci BR-JM03 (sweet potato whitefly) to LC50 for second instar nymph of Bemisia tabaci SUD-S; assay type: functional
[8] = test system: Bemisia tabaci; experiment: Insecticidal activity against second instar nymph of organophosphates-resistant Bemisia tabaci MEX03-02 (sweet potato whitefly) in cotton plant leaf after 10 days by leaf-dip bioassay; assay type: functional; details: MEX03-02, 240 h
[9] = test system: Myzus persicae; experiment: Insecticidal activity against third-instar nymph of carbamates, pyrethroids-resistant Myzus persicae F04-01 (green peach aphid) in Brassica oleracea leaf disc after 3 days by leaf-dip bioassay; assay type: functional; details: F04-01, foliar, 72 h
[10] = test system: Bemisia tabaci; experiment: Insecticidal activity against second instar nymph of organophosphates-resistant Bemisia tabaci ESP-00 (sweet potato whitefly) in cotton plant leaf after 10 days by leaf-dip bioassay; assay type: functional; details: ESP-00, 240 h
[11] = test system: Bemisia tabaci; experiment: Resistance ratio, LC50 for second instar nymph of organophosphates-resistant Bemisia tabaci ISR-02 (sweet potato whitefly) to LC50 for second instar nymph of Bemisia tabaci SUD-S; assay type: functional
[12] = test system: Myzus persicae; experiment: Insecticidal activity against third-instar nymph of Myzus persicae NS (green peach aphid) in Brassica oleracea leaf disc after 3 days by leaf-dip bioassay; assay type: functional; details: foliar, 72 h
[13] = test system: Myzus persicae; experiment: Insecticidal activity against adult Myzus persicae (green peach aphid) in Brassica oleracea leaf disc treated with 1 g/L rapeseed oil methylester after 3 days by leaf-dip bioassay; assay type: functional
[14] = test system: Myzus persicae; experiment: Resistance ratio, LC50 for third instar nymph of carbamates, pyrethroids-resistant Myzus persicae JR (green peach aphid) to LC50 for third instar nymph of Myzus persicae NS; assay type: functional
[15] = test system: Bemisia tabaci; experiment: Resistance ratio, LC50 for second instar nymph of organophosphates-resistant Bemisia tabaci ESP-00 (sweet potato whitefly) to LC50 for second instar nymph of Bemisia tabaci SUD-S; assay type: functional
[16] = test system: Myzus persicae; experiment: Insecticidal activity against Myzus persicae (green peach aphid) infected first leaf of cabbage plant assessed as phloem-systemic efficacy at 0.032 ug/plant treated with 2 g/L rapeseed oil methylester measured after 7 days on 3rd leaf by phloem mobility bioassay; assay type: functional
[17] = test system: Bemisia tabaci; experiment: Resistance ratio, LC50 for second instar nymph of organophosphates-resistant Bemisia tabaci CRE04-01 (sweet potato whitefly) to LC50 for second instar nymph of Bemisia tabaci SUD-S; assay type: functional
[18] = Dissociation constant, pKa of the compound; assay type: physicochemical
[19] = test system: Myzus persicae; experiment: Resistance ratio, LC50 for third instar nymph of carbamates, pyrethroids-resistant Myzus persicae F04-01 (green peach aphid) to LC50 for third instar nymph of Myzus persicae NS; assay type: functional
[20] = test system: Myzus persicae; experiment: Insecticidal activity against Myzus persicae (green peach aphid) infected first leaf of cabbage plant assessed as phloem-systemic efficacy at 0.8 ug/plant treated with 2 g/L rapeseed oil methylester measured after 7 days on 3rd leaf by phloem mobility bioassay; assay type: functional
[21] = test system: Bemisia tabaci; experiment: Insecticidal activity against second instar nymph of organophosphates-resistant Bemisia tabaci CRE04-01 (sweet potato whitefly) in cotton plant leaf after 10 days by leaf-dip bioassay; assay type: functional; details: CRE04-01, 240 h
[22] = test system: Myzus persicae; experiment: Insecticidal activity against first instar nymph of Myzus persicae (green peach aphid) in Brassica oleracea leaf disc treated with 1 g/L rapeseed oil methylester after 3 days by leaf-dip bioassay; assay type: functional
[23] = test system: Myzus persicae; experiment: Insecticidal activity against Myzus persicae (green peach aphid) infected first leaf of cabbage plant assessed as phloem-systemic efficacy at 0.16 ug/plant treated with 2 g/L rapeseed oil methylester measured after 7 days on 3rd leaf by phloem mobility bioassay; assay type: functional
[24] = test system: Bemisia tabaci; experiment: Insecticidal activity against second instar nymph of Bemisia tabaci SUD-S (sweet potato whitefly) in cotton plant leaf after 10 days by leaf-dip bioassay; assay type: functional; details: 240 h
[25] = test system: Myzus persicae; experiment: Insecticidal activity against third-instar nymph of carbamates, pyrethroids-resistant Myzus persicae JR (green peach aphid) in Brassica oleracea leaf disc after 3 days by leaf-dip bioassay; assay type: functional; details: foliar, 72 h
[26] = test system: Bemisia tabaci; experiment: Insecticidal activity against second instar nymph of organophosphates-resistant Bemisia tabaci ISR-02 (sweet potato whitefly) in cotton plant leaf after 10 days by leaf-dip bioassay; assay type: functional; details: ISR-02, 240 h

CCOC(=O)OC1=C(c2cc(C)ccc2C)C(=O)N[C@]12CC[C@@H](OC)CC2 [SPIROTETRAMAT]
RatioLC50 [1]: 1.9 | Efficacy [2]: 85.6% | logP [3]: 0.3 | Efficacy [4]: 100% | LC50 [5]: 0.64 µg/mL (≈ 1.71 µM) | Efficacy [6]: 100% | RatioLC50 [7]: 2.5 | LC50 [8]: 0.49 µg/mL (≈ 1.31 µM) | LC50 [9]: 0.27 µg/mL (≈ 0.723 µM) | LC50 [10]: 0.74 µg/mL (≈ 1.98 µM) | RatioLC50 [11]: 2.8 | LC50 [12]: 0.69 µg/mL (≈ 1.85 µM) | LC95 [13]: 22 ppm | RatioLC50 [14]: 0.9 | RatioLC50 [15]: 2.8 | Efficacy [16]: 8.8% | RatioLC50 [17]: 3.8 | pKa [18]: 5.2 | RatioLC50 [19]: 0.4 | Efficacy [20]: 56.7% | LC50 [21]: 1 µg/mL (≈ 2.68 µM) | LC95 [22]: 0.73 ppm | Efficacy [23]: 22.5% | LC50 [24]: 0.26 µg/mL (≈ 0.696 µM) | LC50 [25]: 0.59 µg/mL (≈ 1.58 µM) | LC50 [26]: 0.72 µg/mL (≈ 1.93 µM)
